By pIC50 is commonly meant −log10 of the IC50, conventionally taken in molar units. A higher pIC50 goes with a small IC50.

pIC50: −log10 of the molar value.

The source of these data is BindingDB's records for doi:10.7270/Q2028PZ5 (Burnham Center For Chemical Genomics, 2010).

The target in this assay is G-protein coupled receptor 55 (Homo sapiens, UniProt Q9Y2T6). Briefly: GPR55 antagonists, SAR follow-up, counter-screen for GPR35 antagonist project, imaging, image-based (AID 2397). The note with it: inactive by the depositor's call. A general note: A counterscreen serves to expose hits that act by an unwanted route or on another target.
Chain of G-protein coupled receptor 55 (Q9Y2T6 whole entry): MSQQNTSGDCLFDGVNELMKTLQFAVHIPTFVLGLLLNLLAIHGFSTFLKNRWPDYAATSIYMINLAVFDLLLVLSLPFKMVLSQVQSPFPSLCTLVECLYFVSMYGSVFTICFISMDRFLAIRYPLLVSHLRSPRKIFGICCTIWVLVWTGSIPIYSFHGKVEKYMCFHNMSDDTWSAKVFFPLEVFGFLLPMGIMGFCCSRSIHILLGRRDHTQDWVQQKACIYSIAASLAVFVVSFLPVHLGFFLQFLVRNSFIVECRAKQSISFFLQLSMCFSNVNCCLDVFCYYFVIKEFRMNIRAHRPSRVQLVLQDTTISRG

For `CC(/C=C1\SC(=S)N(CCCC(=O)Nc2ccc(C(=O)O)c(O)c2)C1=O)=C\c1ccccc1` [2-hydroxy-4-[[4-[(5Z)-5-[(E)-2-methyl-3-phenylprop-2-enylidene]-4-oxo-2-sulfanylidene-3-thiazolidinyl]-1-oxobutyl]amino]benzoic acid], the negative logarithm of the IC50 (pIC50) was 4.66.
